These results are taken from US5240714A, “Non-digoxin-like Na^+, K^+ -ATPase inhibitory factor” (priority 1989, dated 1993).

This test concerns anti-digoxin antibody. In words: digoxin radioimmunoassay (cross-reactivity with anti-digoxin antibody). Particulars: at the doses tested. The class given is binding. The protocol: Radioimmunoassay. Generally, a digoxin antibody covalently bound to the inner surface of polypropylene tubes was used, obtained from Immunochem (USA). Digoxin standards and samples were diluted 1:2 in 1.5M Tris-ClH, pH 7.5. ^125 I-digoxin (2000 μCi/μg) was used.
As stated previously, this cross reaction is not a necessary criteria for HHIF. However, this method is used to follow and evaluate digoxin-like substances in the exemplary purification procedures. An RIA commercial kit was used, purchased from Immunochem. Digoxin standards and sample preparations were diluted 1:2 in 1.5M Tris-ClH, pH 7.5. Digoxin antibodies were covalently bound to the inner surface of polypropylene tubes. After a 30 min. incubation at 20° C., tubes with sample plus I^125 -digoxin unbound radioactivity are discarded and the tubes counted by […]. Values of DLA are calculated by extrapolating from the standard curve constructed on semilogarithmic paper with plots of B/B. vs. concentration.
A radioimmunoassay method based on charcoal separation using a commercial antibody elicited in rabbit against digoxin is also used as described by Smith, T. W., et al. "Determination Of Therapeutic And Toxic Serum Digoxin Concentrations By Radioimmunoassay." The New England J Med. 1969;1212-1216.

As to `C[C@@H]1O[C@@H](O[C@H]2C[C@@H](O)[C@]3(CO)[C@H]4[C@H](O)C[C@]5(C)[C@@H](C6=CC(=O)OC6)CC[C@]5(O)[C@@H]4CC[C@]3(O)C2)[C@H](O)[C@H](O)[C@H]1O` [ouabain], the “cross-reactivity with anti-digoxin antibody (digoxin immunoreactivity)” value was “weakly cross-reacted”.
